Each block holds one compound with its values, some of them ahead of it.
Test system: 958667-338-R-J2-PDC tumor spheroids viability
Assay: Anticancer human tumor 958667-338-R-J2-PDC patient-derived colon adenocarcinoma cell line growth inhibition [PI3K]
Details: spheroids with HUVEC and MSC; for IC50: curve of first compound; for viability, T/C: stronger effect = lower value
Outline: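 Combination activity was assessed by viability in multicellular tumor spheroids carrying HUVEC and MSC components. Agents were tested with PI3K inhibitors from a Cmax-based top dose (or 10 microM) downward in half-log increments.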

[1] = second compound 0.00316 µM, first compound 0.0316 µM
[2] = second compound 0.00316 µM, first compound 0.1 µM
[3] = second compound 0.00316 µM, first compound 0.316 µM
[4] = second compound 0.00316 µM, first compound 1 µM
[5] = second compound 0.00316 µM, first compound 3.16 µM
[6] = second compound 0.00316 µM, first compound 10 µM
[7] = second compound 0.01 µM, first compound 0.0316 µM
[8] = second compound 0.01 µM, first compound 0.1 µM
[9] = second compound 0.01 µM, first compound 0.316 µM
[10] = second compound 0.01 µM, first compound 1 µM
[11] = second compound 0.01 µM, first compound 3.16 µM
[12] = second compound 0.01 µM, first compound 10 µM
[13] = second compound 0.0316 µM, first compound 0.0316 µM
[14] = second compound 0.0316 µM, first compound 0.1 µM
[15] = second compound 0.0316 µM, first compound 0.316 µM
[16] = second compound 0.0316 µM, first compound 1 µM
[17] = second compound 0.0316 µM, first compound 3.16 µM
[18] = second compound 0.0316 µM, first compound 10 µM
[19] = second compound 0.1 µM, first compound 0.0316 µM
[20] = second compound 0.1 µM, first compound 0.1 µM
[21] = second compound 0.1 µM, first compound 0.316 µM
[22] = second compound 0.1 µM, first compound 1 µM
[23] = second compound 0.1 µM, first compound 3.16 µM
[24] = second compound 0.1 µM, first compound 10 µM
[25] = second compound 0.316 µM, first compound 0.0316 µM
[26] = second compound 0.316 µM, first compound 0.1 µM
[27] = second compound 0.316 µM, first compound 0.316 µM
[28] = second compound 0.316 µM, first compound 1 µM
[29] = second compound 0.316 µM, first compound 3.16 µM
[30] = second compound 0.316 µM, first compound 10 µM
[31] = second compound 1 µM, first compound 0.0316 µM
[32] = second compound 1 µM, first compound 0.1 µM
[33] = second compound 1 µM, first compound 0.316 µM
[34] = second compound 1 µM, first compound 1 µM
[35] = second compound 1 µM, first compound 3.16 µM
[36] = second compound 1 µM, first compound 10 µM
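Also: spheroids exposed to compounds for seven days before readout.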

IC50 (second compound 0.00316 µM): 6.52 µM
IC50 (second compound 0.01 µM): 5.73 µM
IC50 (second compound 0.0316 µM): 5.21 µM
IC50 (second compound 0.1 µM): 3.76 µM
IC50 (second compound 0.316 µM): < 0.0316 µM
IC50 (second compound 1 µM): < 0.0316 µM
SMILES: CC1(C)CCC(CN2CCN(c3ccc(C(=O)NS(=O)(=O)c4ccc(NCC5CCOCC5)c([N+](=O)[O-])c4)c(Oc4cnc5[nH]ccc5c4)c3)CC2)=C(c2ccc(Cl)cc2)C1 + COc1c(OCCCN2CCOCC2)ccc2c3n(c(=NC(=O)c4cnc(N)nc4)nc12)CCN3
viability, T/C [1]: 76.5%
viability, T/C [2]: 96.3%
viability, T/C [3]: 80.3%
viability, T/C [4]: 98.8%
viability, T/C [5]: 103%
viability, T/C [6]: 25.6%
viability, T/C [7]: 71.8%
viability, T/C [8]: 85.9%
viability, T/C [9]: 72.5%
viability, T/C [10]: 76.6%
viability, T/C [11]: 75.8%
viability, T/C [12]: 25.9%
viability, T/C [13]: 77.6%
viability, T/C [14]: 66.2%
viability, T/C [15]: 61.6%
viability, T/C [16]: 69%
viability, T/C [17]: 80.6%
viability, T/C [18]: 22.6%
viability, T/C [19]: 58%
viability, T/C [20]: 53.4%
viability, T/C [21]: 48.8%
viability, T/C [22]: 53.9%
viability, T/C [23]: 69.6%
viability, T/C [24]: 11.9%
viability, T/C [25]: 45.8%
viability, T/C [26]: 42.3%
viability, T/C [27]: 33.9%
viability, T/C [28]: 33.5%
viability, T/C [29]: 32.5%
viability, T/C [30]: 4.13%
viability, T/C [31]: 19.7%
viability, T/C [32]: 15.1%
viability, T/C [33]: 19%
viability, T/C [34]: 21.9%
viability, T/C [35]: 18.2%
viability, T/C [36]: 2.25%

IC50 (second compound 0.00316 µM): > 10 µM
IC50 (second compound 0.01 µM): > 10 µM
IC50 (second compound 0.0316 µM): > 10 µM
IC50 (second compound 0.1 µM): > 10 µM
IC50 (second compound 0.316 µM): < 0.0316 µM
IC50 (second compound 1 µM): < 0.0316 µM
SMILES: C[C@@H](NC(=O)c1ncnc(N)c1Cl)c1ncc(C(=O)Nc2cc(C(F)(F)F)c(Cl)cn2)s1 + COc1c(OCCCN2CCOCC2)ccc2c3n(c(=NC(=O)c4cnc(N)nc4)nc12)CCN3
viability, T/C [1]: 96.1%
viability, T/C [2]: 88.5%
viability, T/C [3]: 107%
viability, T/C [4]: 110%
viability, T/C [5]: 116%
viability, T/C [6]: 66.7%
viability, T/C [7]: 96.3%
viability, T/C [8]: 96.8%
viability, T/C [9]: 111%
viability, T/C [10]: 89.5%
viability, T/C [11]: 69.9%
viability, T/C [12]: 72.1%
viability, T/C [13]: 78.9%
viability, T/C [14]: 88.3%
viability, T/C [15]: 77.5%
viability, T/C [16]: 84.3%
viability, T/C [17]: 86.1%
viability, T/C [18]: 76.2%
viability, T/C [19]: 62.2%
viability, T/C [20]: 70.8%
viability, T/C [21]: 68.1%
viability, T/C [22]: 82.1%
viability, T/C [23]: 83.2%
viability, T/C [24]: 59.8%
viability, T/C [25]: 34.3%
viability, T/C [26]: 37.2%
viability, T/C [27]: 44.1%
viability, T/C [28]: 42%
viability, T/C [29]: 57.3%
viability, T/C [30]: 34.2%
viability, T/C [31]: 20.4%
viability, T/C [32]: 19.5%
viability, T/C [33]: 20.1%
viability, T/C [34]: 20.9%
viability, T/C [35]: 15.2%
viability, T/C [36]: 5.92%
